# Assay results reported in patent US5981497A, “Utilization of sophorolipids as therapeutically active substances or cosmetic products, in particular for the treatment of the skin” (Institut Francais du Petrole, priority 1995, dated 1999).
# Columns and labels:
# [1] = test system: keratinocyte culture (detachment of corneocytes); experiment: Desquamating test, detachment of corneocytes in vitro; type: cell-based; conditions: for T60-T0 mean difference: p less than 0.001; for activity at 100 µM / activity at 10 µM / activity at 1 µM: Keratinocyte, read-out: %/TN, proportion of detached corneocytes relative to the negative test
# Excerpt: Variation coefficient CV is obtained as follows: [formula]
# Actually, the therapeutic applications incidentally involve cosmetic applications.
# [2] = Cytotoxicity on L929 at 24 hours (neutral red); type: cell-based; conditions: mouse, l929 cells, read-out: Cellular Viability Rate; for viability at 24 h, 50000 µM: 5.10-2M; for viability at 24 h, 5000 µM: 5.10-3M; for viability at 24 h, 500 µM: 5.10-4M; for viability at 24 h, 10000 µM: 10^-2M; for viability at 24 h, 1000 µM: 10^-3M; for viability at 24 h, 100 µM: 10^-4M; for viability at 24 h, 10 µM: 10^-5M
# Excerpt: (§1) Their innocuousness and their activity make it possible to use them in other stages of healing, namely granulation and epithelialization, by modulating their concentration in the formulas of products that are used. This is possible only because of the low cytotoxicity of sophorolipids, as Tables 3A and 3B show. The toxicity of the products of the invention has been evaluated with a viability test with neutral red on two cellular types of the skin, cells L929 and other fibroblasts of the dermis and cells NCTC 2544 and keratinocytes of the epidermis. The results, which are presented in Tables 3A, 3B, correspond to the rates of cellular viability that are expressed in % relative to the negative test.
# [3] = Cytotoxicity on primocultures at 24 hours (neutral red), keratinocytes; type: cell-based; conditions: read-out: Cellular Viability Rate; for viability at 24 h, 1000 µM: 10^-3M; for viability at 24 h, 100 µM: 10^-4M; for viability at 24 h, 10 µM: 10^-5M; for viability at 24 h, 1 µM: 10^-6M
# Excerpt: as §1
# [4] = biological target: T1, fibrin clot reconstituted with bovine thrombin and human fibrinogen (Homo sapiens, UniProt P02671+P02675+P02679); experiment: Fibrinolysis in vitro (lysis of fibrin clot); type: biochemical;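 note: values are percent lysis of the fibrin clot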
# T1 sequence (P02671 20-644 isoform P02671-2 limits assumed): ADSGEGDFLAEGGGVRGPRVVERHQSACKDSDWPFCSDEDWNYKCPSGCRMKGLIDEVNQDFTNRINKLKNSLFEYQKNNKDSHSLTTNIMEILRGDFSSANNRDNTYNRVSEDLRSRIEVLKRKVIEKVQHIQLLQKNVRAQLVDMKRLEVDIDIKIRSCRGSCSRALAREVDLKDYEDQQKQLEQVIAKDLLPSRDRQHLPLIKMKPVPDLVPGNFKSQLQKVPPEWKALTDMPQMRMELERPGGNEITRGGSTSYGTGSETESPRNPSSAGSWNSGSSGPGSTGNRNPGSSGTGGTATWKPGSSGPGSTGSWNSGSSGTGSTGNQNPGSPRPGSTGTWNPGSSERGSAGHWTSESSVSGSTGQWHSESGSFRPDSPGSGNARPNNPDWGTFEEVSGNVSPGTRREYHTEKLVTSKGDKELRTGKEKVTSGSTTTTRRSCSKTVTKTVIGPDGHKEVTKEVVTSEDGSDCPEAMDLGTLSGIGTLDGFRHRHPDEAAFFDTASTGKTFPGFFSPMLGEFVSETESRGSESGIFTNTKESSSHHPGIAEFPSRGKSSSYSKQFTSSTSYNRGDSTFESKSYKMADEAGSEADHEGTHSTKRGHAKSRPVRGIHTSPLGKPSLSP
# T1 sequence (P02675 45-491 limits assumed): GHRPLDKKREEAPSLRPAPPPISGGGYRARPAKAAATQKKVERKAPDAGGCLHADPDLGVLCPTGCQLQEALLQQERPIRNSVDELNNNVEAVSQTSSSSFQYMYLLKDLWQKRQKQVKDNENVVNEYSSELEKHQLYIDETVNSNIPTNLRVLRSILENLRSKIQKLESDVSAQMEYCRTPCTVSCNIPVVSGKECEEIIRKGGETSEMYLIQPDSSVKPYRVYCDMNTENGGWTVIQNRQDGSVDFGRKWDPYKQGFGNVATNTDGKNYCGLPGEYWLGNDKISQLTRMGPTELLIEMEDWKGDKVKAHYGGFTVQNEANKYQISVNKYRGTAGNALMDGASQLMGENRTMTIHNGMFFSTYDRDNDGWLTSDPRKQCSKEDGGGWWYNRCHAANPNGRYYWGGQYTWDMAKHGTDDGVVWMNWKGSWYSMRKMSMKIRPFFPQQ
# T1 sequence (P02679 27-437 isoform P02679-2 limits assumed): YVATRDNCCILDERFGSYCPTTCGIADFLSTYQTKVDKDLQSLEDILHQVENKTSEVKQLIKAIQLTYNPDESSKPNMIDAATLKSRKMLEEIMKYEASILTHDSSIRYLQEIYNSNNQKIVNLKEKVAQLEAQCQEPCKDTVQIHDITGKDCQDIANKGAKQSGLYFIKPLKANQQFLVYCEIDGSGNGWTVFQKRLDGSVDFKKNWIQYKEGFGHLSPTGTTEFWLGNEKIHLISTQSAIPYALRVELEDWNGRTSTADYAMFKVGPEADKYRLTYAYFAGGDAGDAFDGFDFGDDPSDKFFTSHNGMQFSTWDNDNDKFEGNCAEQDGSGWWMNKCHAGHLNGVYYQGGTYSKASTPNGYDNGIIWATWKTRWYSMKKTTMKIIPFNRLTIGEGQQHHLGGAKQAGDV
# Procedure: They also act directly on necrotic plaque. […] This lysis was measured from a fibrin clot that was reconstituted with bovine thrombin and human fibrinogen. The clot that is obtained is covered by 0.5 ml of PBS that contains the sample. The modification of the fibrin gel thickness at 4 hours and 24 hours makes it possible to quantify the fibrinolytic activity. This activity will therefore promote fibrinolysis at wounds, making it possible to act on the bedsore spot and to induce better granulation, as well as better organic tissue oxygenation. Moreover, owing to their surfactant property, sophorolipids make the fragments, molecules, soluble and detach the dead cells from the bed of the wound. This last action is more particularly due to their role in desquamation, which will be described below.
# [5] = Cytotoxicity on NCTC2544 at 24 hours (neutral red); type: cell-based; conditions: human, nctc2544 cells, read-out: Cellular Viability Rate; for viability at 24 h, 50000 µM: 5.10-2M; for viability at 24 h, 5000 µM: 5.10-3M; for viability at 24 h, 500 µM: 5.10-4M; for viability at 24 h, 10000 µM: 10^-2M; for viability at 24 h, 1000 µM: 10^-3M; for viability at 24 h, 100 µM: 10^-4M; for viability at 24 h, 10 µM: 10^-5M
# Excerpt: as §1
# [6] = Cytotoxicity on primocultures at 24 hours (neutral red), fibroblasts; type: cell-based; conditions: fibroblasts, 24 hours, read-out: Cellular Viability Rate; for viability at 24 h, 1000 µM: 10^-3M; for viability at 24 h, 100 µM: 10^-4M; for viability at 24 h, 10 µM: 10^-5M; for viability at 24 h, 1 µM: 10^-6M
# Excerpt: as §1
Structure (SMILES),T60-T0 mean difference ([1]; 10^-4M) [corneocytes/ml],T60-T0 mean difference ([1]; 10^-5M) [corneocytes/ml],T60-T0 mean difference ([1]; 10^-6M) [corneocytes/ml],activity at 100 µM ([1]; 10^-4M) [%],activity at 10 µM ([1]; 10^-5M) [%],activity at 1 µM ([1]; 10^-6M) [%],"viability at 24 h, 50000 µM [2] [%]","viability at 24 h, 5000 µM [2] [%]","viability at 24 h, 500 µM [2] [%]","viability at 24 h, 10000 µM [2] [%]","viability at 24 h, 1000 µM [2] [%]","viability at 24 h, 100 µM [2] [%]","viability at 24 h, 10 µM [2] [%]","viability at 24 h, 1000 µM [3] [%]","viability at 24 h, 100 µM [3] [%]","viability at 24 h, 10 µM [3] [%]","viability at 24 h, 1 µM [3] [%]","viability at 24 h, 50000 µM [5] [%]","viability at 24 h, 5000 µM [5] [%]","viability at 24 h, 500 µM [5] [%]",also measured
CC(CCCCCC/C=C\CCCCCCCC(=O)O)O[C@@H]1O[C@H](CO)[C@@H](O)[C@H](O)[C@H]1O[C@@H]1O[C@H](CO)[C@@H](O)[C@H](O)[C@H]1O (stereo partly shown) [Sophorolipid in Acid Form],2278,1944,1555,195,167,133,5.47,7.62,99.2,6.18,100,102,101,86.7,99.3,99.9,99.5,6.35,8.34,99.9,"Lysis of the fibrin clot ([4]; 4 hours, 10% MS): 75 % relative to TN; Lysis of the fibrin clot ([4]; 4 hours, 10-1M): 66 % relative to TN; Lysis of the fibrin clot ([4]; 4 hours, 10^-2M): 5 % relative to TN; Lysis of the fibrin clot ([4]; 4 hours, 10^-3M): 0 % relative to TN; Lysis of the fibrin clot ([4]; 4 hours, 10^-4M): 0 % relative to TN; Lysis of the fibrin clot ([4]; 4 hours, 10^-5M): 0 % relative to TN; Lysis of the fibrin clot ([4]; 24 hours, 10% MS): 90 % relative to TN; Lysis of the fibrin clot ([4]; 24 hours, 10-1M): 80 % relative to TN; Lysis of the fibrin clot ([4]; 24 hours, 10^-2M): 40 % relative to TN; Lysis of the fibrin clot ([4]; 24 hours, 10^-3M): 20 % relative to TN; Lysis of the fibrin clot ([4]; 24 hours, 10^-4M): 5 % relative to TN; Lysis of the fibrin clot ([4]; 24 hours, 10^-5M): 0 % relative to TN; viability at 24 h, 10000 µM [5]: 7.12%; viability at 24 h, 1000 µM [5]: 100%; viability at 24 h, 100 µM [5]: 100%; viability at 24 h, 10 µM [5]: 101%; viability at 24 h, 1000 µM [6]: 85.7%; viability at 24 h, 100 µM [6]: 98.3%; viability at 24 h, 10 µM [6]: 98.7%; viability at 24 h, 1 µM [6]: 99.7%"
CC1CCCCCC/C=C\CCCCCCCC(=O)O[C@H]2[C@H](O)[C@@H](O)[C@H](O[C@H]3[C@H](O1)O[C@H](CO)[C@@H](O)[C@@H]3O)O[C@@H]2CO (stereo partly shown) [Sophorolipid in Lactone Form],2389,1833,1528,205,157,131,5.65,5.44,6.63,5.26,5.71,87,96.5,6.58,95.9,99.6,99.6,5.86,6.44,8.7,"Lysis of the fibrin clot ([4]; 4 hours, 30% MS): 15 % relative to TN; Lysis of the fibrin clot ([4]; 24 hours, 30% MS): 33 % relative to TN; viability at 24 h, 10000 µM [5]: 6.49%; viability at 24 h, 1000 µM [5]: 6.17%; viability at 24 h, 100 µM [5]: 85.2%; viability at 24 h, 10 µM [5]: 95.5%; viability at 24 h, 1000 µM [6]: 5.96%; viability at 24 h, 100 µM [6]: 91.2%; viability at 24 h, 10 µM [6]: 100%; viability at 24 h, 1 µM [6]: 101%"
